Assay results published in patent US9346832B2, “Gold complexes for use in the treatment of cancer” (University of Kwazulu-Natal, priority 2010, dated 2016).
Where two headings read alike, the source gives them in different places.

How the values were obtained:
[1] = test system: 60 human cancer cell lines; details: cited from earlier work; for GI50 / IC50 / CC50: mean over 60 cell lines; for IC50: read-out: TGI or IC50, total growth inhibition; for CC50: read-out: LC50, 50% cell death
topoisomerase II = topoisomerase II (Homo sapiens, UniProt P11388); test: Topoisomerase II DNA cleavage/relaxation assay, supercoiled plasmid DNA, EB gel (TopoGEN protocol); assay type: biochemical; details: for action on topoisomerase II: compared with VP-16 (etoposide); for concentration at which topoisomerase II poisoning (DNA cleavage induction) is observed: supercoiled plasmid DNA, linear cleavage products
Experimental: The compound MA_AuPr clearly targets topoisomerase II if the statistical analysis of the NCI data for a range of drugs shown in FIG. 13 is correct. MA_AuPr was therefore assayed for its action against topoisomerase II in vitro using TopoGEN's standard protocol over a wide range of test agent concentrations (0.005 to 500 μM) in order to obtain direct experimental proof for the apparent cellular target of the compound to ensure that a fundamental understanding of the mechanism of action of this new class of Au(III) compounds exists. These experiments were performed by the company TopoGEN and at the University of Central Florida. The DNA cleavage experiments were performed in vitro using purified topoisomerase I and II enzymes and supercoiled plasmid DNA as the substrate. The controls that were used in the experiment were linear marker DNA as well as reactions without the gold(III) complex and high concentrations of VP16. The compound VP16 (etoposide) is a commercially available DNA intercalator chemotherapeutic agent, widely used in the treatment of lung and testicular cancers as well as lymphomas. The choice of VP16 as a control is based on the fact that it is a poor topoisomerase II inhibitor, but is a powerful topoisomerase II poison which arrests the enzyme's cycle at the ternary drug-enzyme-DNA cleavage complex stage, leading to observation of linear DNA fragments upon SDS denaturation of the enzyme (i.e., work-up). Comparison of the VP16 results with the results of MA_AuPr would therefore give a good indication of whether the gold(III) chelate is an inhibitor or a poison.
Lane 1 of the gel (FIG. 14) is the control experiment with only supercoiled plasmid DNA present. The control contains no topoisomerase II and so the DNA supercoiled structure cannot be relaxed, as the topoisomerase II enzyme would usually do. […] At a higher concentration of the test agent (50 μM), both supercoiled plasmid DNA and linear cleavage products are observed. […] At very high concentrations (>500 μM), MA_AuPr behaves exclusively as a catalytic inhibitor of the enzyme.
The role of gold(III) in the efficacy of the compound was determined by modifying the structure of MA_AuPr by replacing the Au(III) cation with Pd(II) to afford MA_PdPr (the isoelectronic square planar coordination complex of known structure and geometry^31) and carrying out the DNA relaxation assay with topoisomerase II as before. The metal-free ligand (MA_H2PrLig) was tested under identical conditions to confirm that the mechanism of action is related to the intact structure of the metal chelate.

[2] = HepG2 cytotoxicity / cell health parameters; assay type: cell-based, human; details: human
Text: (§1) The data for MA_AuPr in Scheme 22 are consistent with a cytotoxic compound capable of inducing apoptosis (programmed cell death) and, indeed, a compound that performs better than the control drug. […] Other cell health parameters which respond are a loss of total cells per well (indicating toxicity due to necrosis, apoptosis or a reduction in cellular proliferation), an increase in nuclear area (indicating necrosis or G2 cell cycle arrest), an increase in cytochrome c release (implying activation of a signalling cascade leading to apoptosis). The latter is particularly relevant as we may rule out cell death by necrosis in the case of MA_AuPr. The mechanism of action of the compound thus leads to cell cycle arrest in the G2 phase and the induction of apoptosis (highly desirable for an anticancer drug). […] Since the compound induces cytochrome c release, cytotoxicity involves apoptosis.

[3] = test system: HepG2 human hepatocellular carcinoma cells; test: HepG2 cytotoxicity / cell health parameters; assay type: cell-based; details: human
Text: as §1

in vitro = details: human
Text: The Caco-2 data are especially important as many drugs fail due to poor membrane transport/absorption.

calf thymus DNA = test: Calf-thymus DNA titration (absorption hypochroism); assay type: binding
Experimental: FIG. 20 is a graph of the titration of MA_AuPr (1.1a) with calf-thymus DNA in aqueous pH 7 phosphate buffer at 37° C.
The hypochroism of the absorption band of the complex at 383 nm was monitored as a function of added ctDNA. […] Ka is the equilibrium binding constant in M^−1, Ct is the total Au(III) complex concentration, and s is the binding site size.

human cancer cell lines = test: Cytotoxicity summary (NCI-60 or independent cytotoxicity screen), Scheme 19; assay type: cell-based
HeLa cells = test: HeLa cell cytotoxicity dose-response; assay type: cell-based
Experimental: FIG. 9 is a graph of the dose-response curves (HeLa cells, pH 7.0, 37° C.) for three macrocyclic Au(III) chelates. IC50 values for the complexes against HeLa cells obtained from the least squares data fits (graph) are given in the 3rd column of the table.
A summary of the average cytotoxicity data over 60 human cancer cell lines for 1.1a-1.1c and comparison with selected commercial and patented cytotoxic agents is shown in Scheme 7. […] The more abrupt the curve, the harder the dose-response function.

[4] = test system: 60 human cancer cell lines; test: NCI-60 five-dose screen, mean cytotoxicity over 60 human cancer cell lines; assay type: cell-based
Experimental: The gold(III) complexes of this invention were screened by the National Cancer Institute (NCI, USA) against their panel of 60 different human cancer cell lines. These screens initially entail a one-dose test for the compound at a high concentration (10 μM; e.g. FIGS. 5, 6 and 7). Compounds with a good cytotoxicity profile in the one-dose screen are then subjected to a five-dose screen for the full panel of sixty human cancer cell lines (the so-called 5-dose NCI-60 screen). In the full five-dose screen, the compound concentration is varied in five doses from 10^−8 M to 10^−4 M in order to establish a dose-response function of percentage cell growth versus the concentration of the test agent. […] Similar data will shortly be available for compounds 1.1Y^1b and 1.5Y^1a as these derivatives are in 5-dose screens currently at the NCI.
The mean cytotoxicity data summarized in Scheme 7 were compiled over 60 human cancer cell lines from the NCI database. […] The dose-response curves for the bis(pyrrolide-imine) chelates of the invention are steeper, or harder, than those of all the compounds compared in Scheme 7.

[5] = comparison drugs, NCI database, 50% growth inhibition
[6] = MA series: pH 7.0 phosphate buffer at 37° C.

topoisomerase II, sequence (P11388 whole entry): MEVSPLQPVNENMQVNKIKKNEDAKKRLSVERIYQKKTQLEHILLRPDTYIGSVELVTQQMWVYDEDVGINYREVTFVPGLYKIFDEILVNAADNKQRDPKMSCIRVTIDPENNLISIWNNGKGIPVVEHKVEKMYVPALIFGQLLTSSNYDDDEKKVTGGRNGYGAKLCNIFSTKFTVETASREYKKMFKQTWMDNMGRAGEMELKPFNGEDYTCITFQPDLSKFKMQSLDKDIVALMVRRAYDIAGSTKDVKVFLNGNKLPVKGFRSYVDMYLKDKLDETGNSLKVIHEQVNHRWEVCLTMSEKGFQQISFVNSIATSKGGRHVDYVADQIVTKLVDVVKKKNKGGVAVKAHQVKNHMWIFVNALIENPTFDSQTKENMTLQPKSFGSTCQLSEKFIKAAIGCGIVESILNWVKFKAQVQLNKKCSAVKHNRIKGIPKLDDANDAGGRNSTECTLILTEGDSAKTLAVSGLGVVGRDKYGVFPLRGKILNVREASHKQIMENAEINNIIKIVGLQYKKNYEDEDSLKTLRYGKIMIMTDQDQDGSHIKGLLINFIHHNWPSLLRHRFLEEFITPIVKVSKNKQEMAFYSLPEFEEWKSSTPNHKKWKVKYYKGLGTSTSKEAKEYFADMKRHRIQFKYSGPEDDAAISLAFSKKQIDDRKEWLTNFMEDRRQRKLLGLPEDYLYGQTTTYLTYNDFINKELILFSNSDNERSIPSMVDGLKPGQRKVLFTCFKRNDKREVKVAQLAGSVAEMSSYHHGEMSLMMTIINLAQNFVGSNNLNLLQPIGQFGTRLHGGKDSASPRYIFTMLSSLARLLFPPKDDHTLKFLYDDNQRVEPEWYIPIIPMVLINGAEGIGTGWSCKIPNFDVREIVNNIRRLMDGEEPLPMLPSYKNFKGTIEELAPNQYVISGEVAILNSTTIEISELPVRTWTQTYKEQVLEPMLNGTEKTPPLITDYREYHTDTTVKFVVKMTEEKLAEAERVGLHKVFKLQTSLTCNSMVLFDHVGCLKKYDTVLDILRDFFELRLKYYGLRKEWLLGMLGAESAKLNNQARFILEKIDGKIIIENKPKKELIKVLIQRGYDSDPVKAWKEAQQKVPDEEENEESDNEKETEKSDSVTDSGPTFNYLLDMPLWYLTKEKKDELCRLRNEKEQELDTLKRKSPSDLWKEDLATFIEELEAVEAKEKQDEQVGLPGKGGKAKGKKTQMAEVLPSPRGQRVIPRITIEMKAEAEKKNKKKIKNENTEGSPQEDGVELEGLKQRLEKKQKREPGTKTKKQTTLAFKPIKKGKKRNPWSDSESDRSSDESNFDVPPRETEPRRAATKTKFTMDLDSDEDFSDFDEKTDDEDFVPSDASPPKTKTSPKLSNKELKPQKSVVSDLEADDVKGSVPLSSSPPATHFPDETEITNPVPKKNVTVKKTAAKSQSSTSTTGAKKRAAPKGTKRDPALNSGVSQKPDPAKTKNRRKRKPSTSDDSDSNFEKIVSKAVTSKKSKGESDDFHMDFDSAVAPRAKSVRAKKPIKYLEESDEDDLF

CO[C@@]12[C@H](COC(N)=O)C3=C(C(=O)C(C)=C(N)C3=O)N1C[C@@H]1N[C@@H]12 [Mitomycin]
GI50 [1, 5]: 0.71 µM | IC50 ([1]; comparison drugs, NCI database): 6.5 µM

C(=NCCCN=Cc1ccc[nH]1)c1ccc[nH]1 [MA_H2PrLig]
action on topoisomerase II (topoisomerase II): inactivity | concentration at which topoisomerase II poisoning (DNA cleavage induction) is observed (topoisomerase II): 500 µM

CN(C)CCCN1c2ccccc2Sc2ccc(Cl)cc21 [Chlorpromazine, reference compound]
AC50 ([2]; Cell Loss AC50): 7.8 µM | AC50 ([2]; Cytochrome C release AC50): 16 µM | AC50 ([2]; DNA structure AC50): 196 µM | AC50 ([2]; Membrane permeability AC50): 30 µM | AC50 ([2]; Mitochondrial mass AC50): 5.4 µM | AC50 ([2]; Mitochondrial membrane potential AC50): 50 µM | AC50 ([2]; Nuclear Area AC50): 100 µM | Cell Loss MEC [3]: 100 µM | Cytochrome C release MEC [3]: 11 µM | DNA structure MEC [3]: 11 µM | Mitochondrial mass MEC [3]: 3.7 µM | Mitochondrial membrane potential MEC [3]: 3.7 µM | Nuclear Area MEC [3]: >11 µM

CC(=O)CC(c1ccccc1)c1c(O)c2ccccc2oc1=O (stereo not drawn) [Warfarin]
Papp A→B at 2 h, 10 µM (in vitro; Caco-2): 37 ×10⁻⁶ cm/s | Papp B→A at 2 h, 10 µM (in vitro; Caco-2): 8 ×10⁻⁶ cm/s | efflux ratio at 2 h, 10 µM (in vitro; Caco-2): 0.2

ClC1C[N+]2=Cc3ccc[n]3[Au-]23[n]2cccc2C=[N+]3C1.F[P-](F)(F)(F)(F)F [MA_AuCl, 2,2′-{(2-chloropropane-1,3-diyl)bis[nitrilo(E)methylylidene]}bis(pyrrol-1-ido)gold(III) hexafluorophosphate(V)]
Ka (calf thymus DNA) (calf thymus DNA; [6]): 3.91(7) × 10^5 M^−1 | Cytotoxicity (human cancer cell lines): active

Cl.Cl.[Cl][Au-]12[n+]3ccccc3-c3cccc([n+]31)-c1cccc[n+]12 [(Au^III(terpy)Cl]Cl2]
GI50 [1, 5]: 0.13 µM | CC50 ([1]; comparison drugs, NCI database): 73 µM | IC50 ([1]; comparison drugs, NCI database): 11 µM

O=NN(CCCl)C(=O)NCCCl [carmustine]
mean −log(GI50) ([1]; selected human cancer cell lines, data not shown): 4.20

C1=[N+]2CCCC[N+]3=Cc4ccc5[n]4[Au-]23[n]2c1ccc2-c1nc2ccccc2nc1-5.F[P-](F)(F)(F)(F)F [KA_AumacroBu, {12,13,14,15-tetrahydro-6,9:18,21-diepimino[1,6]diazacycloctadecino[12,13-b]quinoxalinato}gold(III) hexafluorophosphate(V)]
Ka (calf thymus DNA) (calf thymus DNA; KA series: pH 7.0 15% DMSO-TRIS buffer at 25° C.): 1.20(9) × 10^6 M^−1 | Cytotoxicity (human cancer cell lines): active | GI50 (HeLa cells): ~0.1 µM | IC50 (HeLa cells; pH 7.0, 37° C.): 0.37 µM | CC50 (HeLa cells; read-out: LC50 (the source's name)): < 10 µM

CC[C@@]1(O)C(=O)OCc2c1cc1n(c2=O)Cc2cc3ccccc3nc2-1 [Camptothecin]
GI50 ([1]; comparison drug): 0.04 µM | GI50 [1, 5]: 0.04 µM | CC50 ([1]; comparison drugs, NCI database): 33 µM | IC50 ([1]; comparison drugs, NCI database): 0.89 µM | increase in concentration from 50% growth inhibition to 50% cell kill ([4]; on average over the full 60 cell lines): 825 fold

C(=NCCCN=Cc1ccc[n-]1)c1ccc[n-]1.[Pd+2] [MA_PdPr]
weaker effect than the gold(III) complex (topoisomerase II; DNA-cleavage induction in presence of topoisomerase II): 100 fold | action on topoisomerase II (topoisomerase II): diminished activity | concentration at which topoisomerase II poisoning (DNA cleavage induction) is observed (topoisomerase II): 50 µM

CCOC1C[N+]2=Cc3ccc[n]3[Au-]23[n]2cccc2C=[N+]3C1.F[P-](F)(F)(F)(F)F [MA_AuOEt, 2,2{(2-ethoxypropane-1,3-diyl)bis[nitrilo(E)methylylidene]}bis(pyrrol-1-ido)gold(III) hexafluorophosphate(V)]
Ka (calf thymus DNA) (calf thymus DNA; [6]): 1.01(4) × 10^6 M^−1 | Cytotoxicity (human cancer cell lines): active

CNC(=C[N+](=O)[O-])NCCSCc1ccc(CN(C)C)o1 [Ranitidine]
Papp A→B at 2 h, 10 µM (in vitro): 0.7 ×10⁻⁶ cm/s | Papp B→A at 2 h, 10 µM (in vitro): 2.3 ×10⁻⁶ cm/s | efflux ratio at 2 h, 10 µM (in vitro): 3.3

CC1(C)C[N+]2=Cc3ccc[n]3[Au-]23[n]2cccc2C=[N+]3C1.[Cl-] [MA_AuDM, 2,2′{(2,2-dimethylpropane-1,3-diyl)bis[nitrilo(E)methyl-ylidene]}bis(pyrrol-1-ido)gold(III) chloride]
Ka (calf thymus DNA) (calf thymus DNA; [6]): 1.63(3) × 10^5 M^−1 | Cytotoxicity (human cancer cell lines): active | fraction of cancer cell lines equivalently or more susceptible than to cisplatin ([4]; 60 human cancer cell lines): around 12% | CC50 ([4]; mean over 60 human cancer cell lines, 50% cell death, read-out: LC50 (the source's name)): 72 µM | GI50 ([4]; mean over 60 human cancer cell lines, 50% growth inhibition): 12 µM | TGI (concentration for total growth inhibition) ([4]; mean over 60 human cancer cell lines, 100% (total) growth inhibition, read-out: TGI or IC50): 31 µM | growth inhibition activity relative to cisplatin, on average ([4]; plot of −log(GI50/M) versus cisplatin, FIG. 10): 91%
